Test results from PubChem BioAssay AID1918952 (Molecular Pharmacology Branch, DTP, NCI, 2023).
Values joined by “and” are separate entries in the source; they are usually repeats but may differ in a detail not shown here. Equal entries are not always repeated.

System: LG0703-F948-PDC complex spheroid viability
Experiment: Anticancer human tumor LG0703-F948-PDC patient-derived lung adenocarcinoma cell line growth inhibition
Details: for viability, T/C: stronger effect = lower value
Method in brief: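 Multicellular complex spheroids of tumor cells with human endothelial cells (HUVEC) and mesenchymal stem cells; the LSD1 inhibitor iadademstat was combined with standard-of-care or investigational agents. Top concentration at or near clinical Cmax, half-log dilutions; final DMSO ≤0.25%.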

[1] = curve of first compound, second compound 0.1 µM
[2] = curve of first compound, second compound 0.316 µM
[3] = curve of first compound, second compound 1 µM
[4] = curve of first compound, second compound 3.16 µM
[5] = curve of first compound, second compound 10 µM
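Further: spheroids exposed to agents for seven days before readout.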
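Wherever viability, T/C is given: 100% = DMSO vehicle control wells as normalization base.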

`CC(C)c1c(-c2ccccc2)nc2c(C#N)c[nH]n2c1=O` + NC1CCC(NC2CC2c2ccccc2)CC1 was tested, and the IC50 [1] was > 10000 nM, the IC50 [2] was > 10000 nM and the IC50 [3] was > 10000 nM. For the same molecule, the IC50 [4] was > 10000 nM, the IC50 [5] was > 10000 nM and the viability, T/C (second compound 0.1 µM, first compound 0.0316 µM) was 101%. The viability, T/C (second compound 0.1 µM, first compound 0.1 µM) was 95.8%, the viability, T/C (second compound 0.1 µM, first compound 0.316 µM) was 85.5% and the viability, T/C (second compound 0.1 µM, first compound 1 µM) was 90.1%. It also gave a viability, T/C (second compound 0.1 µM, first compound 3.16 µM) of 102%, a viability, T/C (second compound 0.1 µM, first compound 10 µM) of 78.3% and a viability, T/C (second compound 0.316 µM, first compound 0.0316 µM) of 98.1%. For the same molecule, the viability, T/C (second compound 0.316 µM, first compound 0.1 µM) was 104%, the viability, T/C (second compound 0.316 µM, first compound 0.316 µM) was 97.4% and the viability, T/C (second compound 0.316 µM, first compound 1 µM) was 95%. For the same molecule, the viability, T/C (second compound 0.316 µM, first compound 3.16 µM) was 101%, the viability, T/C (second compound 0.316 µM, first compound 10 µM) was 85.9% and the viability, T/C (second compound 1 µM, first compound 0.0316 µM) was 110%. It also gave a viability, T/C (second compound 1 µM, first compound 0.1 µM) of 102%, a viability, T/C (second compound 1 µM, first compound 0.316 µM) of 106% and a viability, T/C (second compound 1 µM, first compound 1 µM) of 83%. For the same molecule, the viability, T/C (second compound 1 µM, first compound 3.16 µM) was 98.4%, the viability, T/C (second compound 1 µM, first compound 10 µM) was 89.1% and the viability, T/C (second compound 3.16 µM, first compound 0.0316 µM) was 106%. It also gave a viability, T/C (second compound 3.16 µM, first compound 0.1 µM) of 108%, a viability, T/C (second compound 3.16 µM, first compound 0.316 µM) of 108% and a viability, T/C (second compound 3.16 µM, first compound 1 µM) of 105%. For the same molecule, the viability, T/C (second compound 3.16 µM, first compound 3.16 µM) was 107%, the viability, T/C (second compound 3.16 µM, first compound 10 µM) was 94.1% and the viability, T/C (second compound 10 µM, first compound 0.0316 µM) was 110%. For the same molecule, the viability, T/C (second compound 10 µM, first compound 0.1 µM) was 119%, the viability, T/C (second compound 10 µM, first compound 0.316 µM) was 113% and the viability, T/C (second compound 10 µM, first compound 1 µM) was 105%. For the same molecule, the viability, T/C (second compound 10 µM, first compound 3.16 µM) was 100% and the viability, T/C (second compound 10 µM, first compound 10 µM) was 85.8%.
In the case of `Nc1ccccc1NC(=O)c1ccc(CNC(=O)OCc2cccnc2)cc1` + NC1CC1c1ccc(-c2cccc(O)c2)cc1, the IC50 [1] is reported as 94.8 nM, the IC50 [2] is reported as 90.7 nM and the IC50 [3] is reported as 79.7 nM. For the same molecule, the IC50 [4] was 99 nM, the IC50 [5] was 63 nM and the viability, T/C (second compound 0.1 µM, first compound 0.00949 µM) was 96.4%. For the same molecule, the viability, T/C (second compound 0.1 µM, first compound 0.03 µM) was 85.7%, the viability, T/C (second compound 0.1 µM, first compound 0.0949 µM) was 49.5% and the viability, T/C (second compound 0.1 µM, first compound 0.3 µM) was 14.9%. The viability, T/C (second compound 0.1 µM, first compound 0.949 µM) was 1.36%, the viability, T/C (second compound 0.1 µM, first compound 3 µM) was 0.66% and the viability, T/C (second compound 0.316 µM, first compound 0.00949 µM) was 86%. For the same molecule, the viability, T/C (second compound 0.316 µM, first compound 0.03 µM) was 74.1%, the viability, T/C (second compound 0.316 µM, first compound 0.0949 µM) was 50.6% and the viability, T/C (second compound 0.316 µM, first compound 0.3 µM) was 7.98%. The viability, T/C (second compound 0.316 µM, first compound 0.949 µM) was 0.56%, the viability, T/C (second compound 0.316 µM, first compound 3 µM) was 0.86% and the viability, T/C (second compound 1 µM, first compound 0.00949 µM) was 80.9%. It also gave a viability, T/C (second compound 1 µM, first compound 0.03 µM) of 76.7%, a viability, T/C (second compound 1 µM, first compound 0.0949 µM) of 45.1% and a viability, T/C (second compound 1 µM, first compound 0.3 µM) of 8.53%. For the same molecule, the viability, T/C (second compound 1 µM, first compound 0.949 µM) was 0.73%, the viability, T/C (second compound 1 µM, first compound 3 µM) was 0.8% and the viability, T/C (second compound 3.16 µM, first compound 0.00949 µM) was 87.2%. For the same molecule, the viability, T/C (second compound 3.16 µM, first compound 0.03 µM) was 80.4%, the viability, T/C (second compound 3.16 µM, first compound 0.0949 µM) was 52.2% and the viability, T/C (second compound 3.16 µM, first compound 0.3 µM) was 6.55%. The viability, T/C (second compound 3.16 µM, first compound 0.949 µM) was 0.23%, the viability, T/C (second compound 3.16 µM, first compound 3 µM) was 0.32% and the viability, T/C (second compound 10 µM, first compound 0.00949 µM) was 95.3%. It also gave a viability, T/C (second compound 10 µM, first compound 0.03 µM) of 68.7%, a viability, T/C (second compound 10 µM, first compound 0.0949 µM) of 42.5% and a viability, T/C (second compound 10 µM, first compound 0.3 µM) of 7.86%. It also gave a viability, T/C (second compound 10 µM, first compound 0.949 µM) of 0.67% and a viability, T/C (second compound 10 µM, first compound 3 µM) of 0.19%.
With `O=C(C=Cn1cnc(-c2cc(C(F)(F)F)cc(C(F)(F)F)c2)n1)NNc1cnccn1` the viability, T/C (compound 0.00316 µM) was 53.4% and 53.9%, the viability, T/C (compound 0.01 µM) was 51.9% and 52.1% and the viability, T/C (compound 0.0316 µM) was 43.6% and 42.3%. The viability, T/C (compound 0.1 µM) was 38% and 35.1%, the viability, T/C (compound 0.316 µM) was 35.2% and 29.4% and the viability, T/C (compound 1 µM) was 30.5% and 24.9%. The IC50 (curve of compound) was 8.72 nM and 8.71 nM.
